The values that follow come from BigSolDB 2.1.

The conditions of this data set: in DMF.

With `Clc1ccc(-c2c3nc(c(-c4ccc(Cl)cc4)c4ccc([nH]4)c(-c4ccc(Cl)cc4)c4nc(c(-c5ccc(Cl)cc5)c5ccc2[nH]5)C=C4)C=C3)cc1`, the solubility (mole fraction) (303.2 K) is 2.64e-05; the solubility (mole fraction) (313.2 K) is 3.51e-05; the solubility (mole fraction) (323.2 K) is 4.56e-05; the solubility (mole fraction) (333.2 K) was 6.16e-05; the solubility (mole fraction) (343.2 K) is 8.67e-05; the solubility (mole fraction) (353.2 K) stood at 0.000122.
For `C1=Cc2nc1c(-c1ccccc1)c1ccc([nH]1)c(-c1ccccc1)c1nc(c(-c3ccccc3)c3ccc([nH]3)c2-c2ccccc2)C=C1`, the solubility (mole fraction) was 9.76e-05 (303.2 K); 0.000107 (313.2 K); 0.00012 (323.2 K); 0.000136 (333.2 K); 0.000166 (343.2 K).

The term solubility (mole fraction) denotes solubility expressed as the solute's share of all molecules.
